ChEMBL document CHEMBL3745676, “Alkylamino derivatives of N-benzylpyrazine-2-carboxamide: synthesis and antimycobacterial evaluation” (Medchemcomm, 2015)
Activity calls are given as the source filed them. No cut-off for these calls is given here.

Columns and labels:
[1] = Lipophilicity, logK of the compound by RP-HPLC analysis; type: physicochemical
[2] = test system: Mycobacterium tuberculosis; test: Antimycobacterial activity against Mycobacterium tuberculosis H37Rv CNCTC My 331/88 incubated for 10 to 14 days by microplate alamar blue assay; type: functional
Mycobacterium kansasii = test: Antimycobacterial activity against Mycobacterium kansasii CNCTC My 235/80 incubated for 5 to 7 days by microplate alamar blue assay; type: functional
[3] = Cytotoxicity against CRFK cells assessed as cell viability after 4 to 6 days by formazan-based MTS assay; design: species or system Felis catus; details: cat
[4] = Cytotoxicity against HEL cells assessed as cell viability after 4 to 6 days by microscopic analysis; type: cell-based; details: human
[5] = Cytotoxicity against human HeLa cells assessed as cell viability after 4 to 6 days by microscopic analysis; type: cell-based
[6] = Cytotoxicity against African green monkey Vero cells assessed as cell viability after 4 to 6 days by microscopic analysis; type: cell-based; details: chlorocebus sabaeus
[7] = Cytotoxicity against MDCK cells assessed as cell viability after 4 to 6 days by formazan-based MTS assay; design: species or system Canis lupus familiaris; details: dog
[8] = Cytotoxicity against MDCK cells assessed as cell viability after 4 to 6 days by microscopic analysis; type: cell-based, Canis lupus familiaris; details: dog
Influenza A virus [9] = test: Antiviral activity against Influenza A virus (A/Puerto Rico/8/(H1N1)) assessed as inhibition of virus-induced cytopathic effect after 3 to 6 days by formazan-based MTS assay; type: functional, organism-based
Mycobacterium avium [10] = test: Antimycobacterial activity against Mycobacterium avium CNCTC My 80/72 after 5 days by microplate alamar blue assay; type: functional; details: CNCTC My 80/72, 120 h
Mycobacterium avium [11] = test: Antimycobacterial activity against Mycobacterium avium CNCTC My 152/73 after 5 days by microplate alamar blue assay; type: functional; details: CNCTC My 152/73, 120 h
Influenza A virus [12] = test: Antiviral activity against Influenza A virus (A/Puerto Rico/8/(H1N1)) assessed as inhibition of virus-induced cytopathic effect after 3 to 6 days by microscopic analysis; type: functional, organism-based
Escherichia coli = test: Antibacterial activity against Escherichia coli CCM 4517 after 24 to 48 hrs by broth microdilution method; type: functional
Pseudomonas aeruginosa = test: Antibacterial activity against Pseudomonas aeruginosa CCM 1961 after 24 to 48 hrs by broth microdilution method; type: functional
Klebsiella pneumoniae [13] = test: Antibacterial activity against Klebsiella pneumoniae D 11750/08 after 24 to 48 hrs by broth microdilution method; type: functional
Klebsiella pneumoniae [14] = test: Antibacterial activity against ESBL positive Klebsiella pneumoniae J 14368/08 after 24 to 48 hrs by broth microdilution method; type: functional
Staphylococcus aureus = test: Antibacterial activity against methicillin-resistant Staphylococcus aureus H 5996/08 after 24 to 48 hrs by broth microdilution method; type: functional, organism-based
Candida albicans = test: Antifungal activity against Candida albicans ATCC 44859 after 24 to 48 hrs by broth microdilution method; type: functional
Candida tropicalis = test: Antifungal activity against Candida tropicalis 156 after 24 to 48 hrs by broth microdilution method; type: functional
Pichia kudriavzevii = test: Antifungal activity against Candida krusei E28 after 24 to 48 hrs by broth microdilution method; type: functional
Nakaseomyces glabratus = test: Antifungal activity against Candida glabrata 20/I after 24 to 48 hrs by broth microdilution method; type: functional
Trichosporon asahii = test: Antifungal activity against Trichosporon asahii 1188 after 24 to 48 hrs by broth microdilution method; type: functional
Aspergillus fumigatus = test: Antifungal activity against Aspergillus fumigatus 231 after 24 to 48 hrs by broth microdilution method; type: functional
Lichtheimia corymbifera = test: Antifungal activity against Lichtheimia corymbifera 272 after 24 to 48 hrs by broth microdilution method; type: functional
[15] = test system: Trichophyton mentagrophytes; test: Antifungal activity against Trichophyton mentagrophytes 445 after 72 to 120 hrs by broth microdilution method; type: functional

Row | Compound | log K [1] | MIC [2] | MIC (Mycobacterium kansasii) | CC50 [3] [µM] | MCC [4] [µM] | MCC [5] [µM] | MCC [6] [µM] | CC50 [7] [µM] | MCC [8] [µM] | EC50 (Influenza A virus [9]) [µM] | MIC (Mycobacterium avium [10]) [µg/mL] | MIC (Mycobacterium avium [11]) [µg/mL] | EC50 (Influenza A virus [12]) [µM] | MIC95 (Escherichia coli) [µM] | MIC95 (Pseudomonas aeruginosa) [µM] | MIC95 (Klebsiella pneumoniae [13]) [µM] | MIC95 (Klebsiella pneumoniae [14]) [µM] | MIC (Candida albicans) [µM] | MIC (Candida tropicalis) [µM] | MIC (Pichia kudriavzevii) [µM] | further results
1 | O=C(NCc1ccccc1)c1nccnc1NCc1ccccc1 | 1.04 | > 100 µg/mL | > 100 µg/mL | > 100 | > 100 | > 100 | > 100 | > 100 | 20 | > 100 | > 100 | > 100 | > 100 |  |  |  |  |  |  |  | 
2 | O=C(NCc1ccccc1)c1nccnc1Cl |  | 50 µM | 100 µg/mL |  |  |  |  |  |  |  | > 100 | > 100 |  |  |  |  |  |  |  |  | 
3 | CCCCCNc1cncc(C(=O)NCc2ccccc2)n1 | 0.768 | 42 µM | 84 µM | > 100 | > 100 | > 100 | > 100 | 33 | 20 | > 100 | > 100 | > 100 | > 100 | > 500 | > 500 | > 500 | > 500 | > 500 | > 500 | > 500 | Activity (Staphylococcus aureus): inactive; MIC (Nakaseomyces glabratus): > 500 µM; MIC (Trichosporon asahii): > 500 µM; MIC (Aspergillus fumigatus): > 500 µM; MIC (Lichtheimia corymbifera): > 500 µM; MIC [15]: > 500 µM
4 | CCCCNc1cncc(C(=O)NCc2ccccc2)n1 | 0.549 | 44 µM | 176 µM | > 100 | > 100 | > 100 | 100 | 66 | 100 | > 100 | > 100 | > 100 | > 100 | > 500 | > 500 | > 500 | > 500 | > 500 | > 500 | > 500 | Activity (Staphylococcus aureus): inactive; MIC (Nakaseomyces glabratus): > 500 µM; MIC (Trichosporon asahii): > 500 µM; MIC (Aspergillus fumigatus): > 500 µM; MIC (Lichtheimia corymbifera): > 500 µM; MIC [15]: > 500 µM
5 | CCCCNc1cnc(C(=O)NCc2ccccc2)cn1 | 0.424 | 88 µM | > 100 µg/mL | > 100 | > 100 | > 100 | > 100 | 57 | 100 | > 100 | > 100 | > 100 | > 100 | > 500 | > 500 | > 500 | > 500 | > 500 | > 500 | > 500 | MIC (Nakaseomyces glabratus): > 500 µM; MIC (Trichosporon asahii): > 500 µM; MIC (Aspergillus fumigatus): > 500 µM; MIC (Lichtheimia corymbifera): > 500 µM; MIC [15]: > 500 µM
6 | CCCCCCNc1cncc(C(=O)NCc2ccccc2)n1 | 0.986 | 20 µM | 40 µM | > 100 | > 100 | > 100 | 100 | 9.5 | 20 | > 100 | > 100 | > 100 | > 100 | > 500 | > 500 | > 500 | > 500 | > 500 | > 500 | > 500 | Activity (Staphylococcus aureus): inactive; MIC (Nakaseomyces glabratus): > 500 µM; MIC (Trichosporon asahii): > 500 µM; MIC (Aspergillus fumigatus): > 500 µM; MIC (Lichtheimia corymbifera): > 500 µM; MIC [15]: > 500 µM
7 | NC(=O)c1cnccn1 [PYRAZINAMIDE] | -0.687 | 102 µM | > 100 µg/mL |  |  |  |  |  |  |  |  |  |  |  |  |  |  |  |  |  | 
